The data set in a line: activity coefficient (dimensionless); of the first substance listed, at infinite dilution; xn = mol fraction of the nth substance listed. To be noted: 101 kPa, Liquid, Chromatography, x1 = 0.

Structures are written as SMILES. Numbers after ± are expanded uncertainties.

`ClCCl` [dichloromethane] + CCCCn1cc[n+](C)c1.O=S(=O)([N-]S(=O)(=O)C(F)(F)C(F)(F)F)C(F)(F)C(F)(F)F: the activity coefficient (322.55 K) was found to be 0.356 ± 0.033, the activity coefficient (342.75 K) worked out at 0.436 ± 0.035 and the activity coefficient (362.65 K) amounted to 0.539 ± 0.039.

With `CCC(=O)CC` [pentan-3-one] + CCCCCC[n+]1ccn(C)c1.FC(F)(F)C(F)(F)[P-](F)(F)(F)(C(F)(F)C(F)(F)F)C(F)(F)C(F)(F)F, the activity coefficient by setting is: (312.8 K) 0.236 ± 0.029; (332.85 K) 0.28 ± 0.03; (354.65 K) 0.301 ± 0.031.

`CCC(C)=O` [butanone] + CCCCCC[n+]1ccn(C)c1.FC(F)(F)C(F)(F)[P-](F)(F)(F)(C(F)(F)C(F)(F)F)C(F)(F)C(F)(F)F: the activity coefficient runs as follows: (312.8 K) 0.204 ± 0.029; (332.85 K) 0.195 ± 0.029; (354.65 K) 0.171 ± 0.029.

Regarding `OCC(F)(F)F` [2,2,2-trifluoroethanol] + CCCCCCCCCCn1cc[n+](CCCCCCCCCC)c1C.O=S(=O)([N-]S(=O)(=O)C(F)(F)F)C(F)(F)F, the activity coefficient runs as follows: (323.1 K) 0.399 ± 0.034; (333.15 K) 0.379 ± 0.033; (343.15 K) 0.355 ± 0.032.

`Cc1ccccc1` [toluene] + CCCCn1cc[n+](C)c1.O=S(=O)([N-]S(=O)(=O)C(F)(F)C(F)(F)F)C(F)(F)C(F)(F)F: the activity coefficient was determined as 1.4 ± 0.091 (322.55 K), 1.42 ± 0.093 (342.75 K) and 1.46 ± 0.096 (362.65 K).

`CCCC(C)=O` [pentan-2-one] + CCn1cc[n+](C)c1.CS(=O)(=O)[O-]: the activity coefficient is, setting by setting: (312.55 K) 7.79 ± 0.53; (322.45 K) 7.7 ± 0.53; (332.45 K) 7.57 ± 0.52.

For the compound `C1COCCO1` [1,4-dioxane] + CCCCCC[n+]1ccn(C)c1.FC(F)(F)C(F)(F)[P-](F)(F)(F)(C(F)(F)C(F)(F)F)C(F)(F)C(F)(F)F, the activity coefficient runs as follows: (312.8 K) 0.273 ± 0.03; (332.85 K) 0.327 ± 0.032; (354.65 K) 0.339 ± 0.032.

On to `CC(C)O` [propan-2-ol] + CCn1cc[n+](C)c1.CS(=O)(=O)[O-], for which the activity coefficient by setting is: (312.55 K) 0.924 ± 0.058; (322.45 K) 0.907 ± 0.058; (332.45 K) 0.877 ± 0.056.

On to `OCC(F)(F)F` [2,2,2-trifluoroethanol] + CCCCn1cc[n+](C)c1.O=S(=O)([N-]S(=O)(=O)C(F)(F)C(F)(F)F)C(F)(F)C(F)(F)F, for which the activity coefficient (322.55 K) is 0.457 ± 0.036, the activity coefficient (342.75 K) came to 0.412 ± 0.034 and the activity coefficient (362.65 K) was 0.373 ± 0.033.

Regarding `Cc1cccc(C)c1` [1,3-dimethylbenzene] + CCCCn1cc[n+](C)c1.O=S(=O)([N-]S(=O)(=O)C(F)(F)C(F)(F)F)C(F)(F)C(F)(F)F, the activity coefficient amounted to 2.02 ± 0.14 (322.55 K), 2.03 ± 0.14 (342.75 K) and 2.09 ± 0.14 (362.65 K).

As for `CCc1ccccc1` [ethylbenzene] + CCCCn1cc[n+](C)c1.O=S(=O)([N-]S(=O)(=O)C(F)(F)C(F)(F)F)C(F)(F)C(F)(F)F, the activity coefficient reads like this: (322.55 K) 2.04 ± 0.14; (342.75 K) 2.05 ± 0.14; (362.65 K) 2.06 ± 0.14.

On to `CCC=O` [propanal] + CCCCn1cc[n+](C)c1.O=S(=O)([N-]S(=O)(=O)C(F)(F)C(F)(F)F)C(F)(F)C(F)(F)F, for which the activity coefficient is, setting by setting: (322.55 K) 0.539 ± 0.039; (342.75 K) 0.533 ± 0.039; (362.65 K) 0.522 ± 0.039.

Consider `C[N+](=O)[O-]` [nitromethane] + CCCCCC[n+]1ccn(C)c1.FC(F)(F)C(F)(F)[P-](F)(F)(F)(C(F)(F)C(F)(F)F)C(F)(F)C(F)(F)F, for which the activity coefficient (312.8 K) was 0.452 ± 0.036, the activity coefficient (332.85 K) was found to be 0.438 ± 0.035 and the activity coefficient (354.65 K) turned out to be 0.41 ± 0.034.

Take `CCC(C)CC` [3-methylpentane] + CCCCn1cc[n+](C)c1.O=S(=O)([N-]S(=O)(=O)C(F)(F)C(F)(F)F)C(F)(F)C(F)(F)F: the activity coefficient was found to be 8.23 ± 0.56 (322.55 K), 7.79 ± 0.53 (342.75 K) and 7.62 ± 0.52 (362.65 K).

As for `CCCCCCCCCC` [decane] + CCCCCCCCCCn1cc[n+](CCCCCCCCCC)c1C.O=S(=O)([N-]S(=O)(=O)C(F)(F)F)C(F)(F)F, the activity coefficient was 3.56 ± 0.24 (323.1 K), 3.46 ± 0.24 (333.15 K) and 3.33 ± 0.23 (343.15 K).

For the compound `CCOCC` [diethyl ether] + CCn1cc[n+](C)c1.CS(=O)(=O)[O-], the activity coefficient is, setting by setting: (312.55 K) 21.8 ± 1.5; (322.45 K) 20.4 ± 1.4; (332.45 K) 18 ± 1.2.

Turning to `CC(C)CC(C)(C)C` [2,2,4-trimethylpentane] + CCCCCC[n+]1ccn(C)c1.FC(F)(F)C(F)(F)[P-](F)(F)(F)(C(F)(F)C(F)(F)F)C(F)(F)C(F)(F)F, the activity coefficient reads like this: (312.8 K) 7.98 ± 0.54; (332.85 K) 7.13 ± 0.49; (354.65 K) 6.18 ± 0.42.

For `CCCO` [propan-1-ol] + CCn1cc[n+](C)c1.CS(=O)(=O)[O-], the activity coefficient is 0.742 ± 0.049 (312.55 K), 0.734 ± 0.049 (322.45 K) and 0.722 ± 0.048 (332.45 K).

For `C=O` [methanal] + CCCCn1cc[n+](C)c1.O=S(=O)([N-]S(=O)(=O)C(F)(F)C(F)(F)F)C(F)(F)C(F)(F)F, the activity coefficient (322.55 K) worked out at 0.134 ± 0.029, the activity coefficient (342.75 K) was found to be 0.155 ± 0.029 and the activity coefficient (362.65 K) was determined as 0.164 ± 0.029.

Turning to `CCOCC` [diethyl ether] + CCCCCCCCCCn1cc[n+](CCCCCCCCCC)c1C.O=S(=O)([N-]S(=O)(=O)C(F)(F)F)C(F)(F)F, the activity coefficient runs as follows: (323.1 K) 0.746 ± 0.049; (333.15 K) 0.771 ± 0.05; (343.15 K) 0.773 ± 0.051.

Take `CCN(CC)CC` [triethylamine] + CCCCCC[n+]1ccn(C)c1.FC(F)(F)C(F)(F)[P-](F)(F)(F)(C(F)(F)C(F)(F)F)C(F)(F)C(F)(F)F: the activity coefficient reads like this: (312.8 K) 2.09 ± 0.14; (332.85 K) 1.96 ± 0.13; (354.65 K) 1.76 ± 0.12.

As to `CCCCCCCCC` [nonane] + CCCCCCCCCCn1cc[n+](CCCCCCCCCC)c1C.O=S(=O)([N-]S(=O)(=O)C(F)(F)F)C(F)(F)F, the activity coefficient by setting is: (323.1 K) 3.31 ± 0.23; (333.15 K) 3.17 ± 0.22; (343.15 K) 3.45 ± 0.23.

Regarding `CCC[N+](=O)[O-]` [1-nitropropane] + CCCCCCCCCCn1cc[n+](CCCCCCCCCC)c1C.O=S(=O)([N-]S(=O)(=O)C(F)(F)F)C(F)(F)F, the activity coefficient runs as follows: (323.1 K) 0.504 ± 0.038; (333.15 K) 0.487 ± 0.037; (343.15 K) 0.479 ± 0.037.

In the case of `Cc1ccccc1C` [1,2-dimethylbenzene] + CCCCn1cc[n+](C)c1.O=S(=O)([N-]S(=O)(=O)C(F)(F)C(F)(F)F)C(F)(F)C(F)(F)F, the activity coefficient is, setting by setting: (322.55 K) 1.87 ± 0.13; (342.75 K) 1.89 ± 0.13; (362.65 K) 1.97 ± 0.13.

In the case of `CC1CCCCC1` [methylcyclohexane] + CCCCCCCCCCn1cc[n+](CCCCCCCCCC)c1C.O=S(=O)([N-]S(=O)(=O)C(F)(F)F)C(F)(F)F, the activity coefficient (323.1 K) worked out at 1.52 ± 0.1, the activity coefficient (333.15 K) worked out at 1.48 ± 0.098 and the activity coefficient (343.15 K) was 1.45 ± 0.095.

Consider `ClC(Cl)Cl` [trichloromethane] + CCCCCC[n+]1ccn(C)c1.FC(F)(F)C(F)(F)[P-](F)(F)(F)(C(F)(F)C(F)(F)F)C(F)(F)C(F)(F)F, for which the activity coefficient (312.8 K) is 1.09 ± 0.069, the activity coefficient (332.85 K) turned out to be 1.09 ± 0.069 and the activity coefficient (354.65 K) amounted to 1.05 ± 0.066.

The record behind these values is the NIST ThermoML archive (doi:10.1021/je200195q).
